{"source": "patent US20110243993A1", "about": "“Method for diagnosing and creating immunogenic tolerance in contact allergy and other epithelial immunotoxicological ailments” (priority 2010, published 2011)", "key": {"[1]": {"settings": "mouse, in vivo; cited from earlier work"}, "[2]": {"tested_on": "anti-nuclear antibodies (ANA)", "test": "Levels of anti-nuclear antibodies (ANA) after contact with sensitizing compounds", "settings": "contact with sensitizing compound"}, "[3]": {"tested_on": "serum amyloid P component (SAP)", "test": "ELISA detection of serum amyloid protein (SAP) in sera of hapten-exposed mice", "settings": "mice exposed on skin, booster dose on day 10", "procedure": "Extreme sensitizers: Oxazolone (4-Ethoxymethylene-2-phenyl-2-oxazolin-5-one, 1.4 mM) CDNB (1-Chloro-2,4-dinitrobenzene, 7.4 mM)); Strong sensitizers: dBBr (48.6 mM), Glyoxal (ethane-1,2-dione, 1.27 M). DMSO was used as control. All chemicals are purchased from Sigma-Aldrich (Stockholm, Sweden).\nApply 25 μl of the solution to the back of both ears (25 μl on each ear), once daily, on day 1, 2 and 3. Apply a booster dose on day 10 (if necessary). Sacrifice the mice on day 6 (or day 13 if a booster dose is used) by anesthetization with isoflurane (Kent Scientific Corporation, Torrington, Conn., USA) followed by inhalation of carbon dioxide (AGA, Lidingö, Sverige). To collect blood: Use a 1 ml syringe (B. Braun Medical Inc., Bethlehem, Pa., USA) with a 0.4 mm×12 mm injection needle (B. Braun Medical Inc., Bethlehem, Pa., USA). Place the tip of the needle just below the breastbone so that the syringe is linear to the abdomen. Insert the needle just below the breastbone and press it towards the heart. When inside the heart, withdraw blood. It is important to loosen the piston a little from the bottom of the syringe before inserting into the mouse. Carefully rotate the syringe during withdrawal to avoid clotting. […]\nThe SAP Mouse, ELISA kit 96 tests, quantitative (Alpha Diagnostics International Inc., San Antonio, Tex., USA) is used. […]"}, "human keratinocytes": {"tested_on": "human keratinocytes", "settings": "for blebbing response of keratinocytes: compound added to human keratinocytes, vehicle DMSO", "excerpt": "(§1) The third step is that this residue (C54) is situated in a stretch of K5 that has been shown through its interactions with desmoplakin, to be vital in maintaining the integrity of the desmosome. It is known that epithelial cells with a compromised cell-cell (and/or cell-matrix) contact undergo apoptosis (“anoikis”). […] Basal keratinocytes consists of up to 35% of insoluble keratin intermediate filaments (KIFs). As basal keratinocytes occasionally undergo apoptosis, a mechanism of waste removal of the debris of insoluble keratins has evolved. […] The keratin bodies bleb off the cells."}, "K5 and K14": {"tested_on": "K5 and K14", "test": "Western blot of blebs using K5 and K14 antibodies", "assay_type": "cell-based, human", "settings": "blebs from hapten-exposed keratinocytes", "excerpt": "Elevated levels of ANA are common features in various autoimmune diseases such as Sjögrens syndrome (SS), rheumatoid arthritis (RA) and systemic lupus erythematosus (SLE).\nas §1"}, "[4]": {"settings": "naïve mice; cited from earlier work"}, "keratins": {"tested_on": "keratins", "test": "Cross-linking of bleb proteins by bidentate haptens", "design": "species or system human", "settings": "bidentate hapten", "excerpt": "In SDS-PAGE experiments it was shown that thiol-, amine-, and arginine-reactive sensitizers give rise to blebs that contain the same protein bands. In this step, it is thus shown that by adding haptens to keratinocytes, the haptens induce expulsion of a high amount of cryptic epitopes that are normally concealed from the immune system through their intracellular location and/or neoepitopes consisting of haptenated/differently processed peptides and proteins. It was also shown, using a LTQ-FT-ICR mass spectrometer coupled to a nanospray source, that the blebs contain other proteins, for example peptidyl-prolyl cis-trans isomerase A, stathmin, calmodulin, cofilin-1, transgelin-2, 14-3-3 protein sigma, annexin A2, tubulin, keratin 6A 6B 6C, transitional endoplasmic reticulum ATPase, endoplasmin, and importin-5. […] It was also shown that the sensitizing compounds also modify other proteins and that these proteins are released in blebs, as visualized by fluorescent bands on SDS-gels."}, "cysteine 54 (C54) of K5": {"target": "T1, cysteine 54 (C54) of K5 (Homo sapiens, UniProt P13647)", "T1 construct": "endogenous in cells; host or cells: living (primary) human keratinocytes and intact full-thickness human skin", "T1 sequence (P13647 1-590)": "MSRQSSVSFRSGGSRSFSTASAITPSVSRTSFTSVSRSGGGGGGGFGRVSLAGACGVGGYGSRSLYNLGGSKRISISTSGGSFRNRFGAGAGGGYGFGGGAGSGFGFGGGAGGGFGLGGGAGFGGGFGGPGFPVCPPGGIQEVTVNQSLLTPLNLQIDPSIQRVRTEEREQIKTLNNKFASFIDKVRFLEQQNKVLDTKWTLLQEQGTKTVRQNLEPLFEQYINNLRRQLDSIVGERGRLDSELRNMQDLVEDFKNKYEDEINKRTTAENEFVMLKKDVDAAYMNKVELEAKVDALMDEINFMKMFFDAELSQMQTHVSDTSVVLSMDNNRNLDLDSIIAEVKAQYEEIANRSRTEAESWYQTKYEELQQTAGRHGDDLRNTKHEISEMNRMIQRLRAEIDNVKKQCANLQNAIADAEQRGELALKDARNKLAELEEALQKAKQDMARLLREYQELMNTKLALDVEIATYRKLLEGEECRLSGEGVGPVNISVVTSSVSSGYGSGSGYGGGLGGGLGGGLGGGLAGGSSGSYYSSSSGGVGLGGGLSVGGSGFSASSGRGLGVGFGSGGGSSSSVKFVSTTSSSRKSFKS", "T1 sequence (P02533 1-472 partner)": "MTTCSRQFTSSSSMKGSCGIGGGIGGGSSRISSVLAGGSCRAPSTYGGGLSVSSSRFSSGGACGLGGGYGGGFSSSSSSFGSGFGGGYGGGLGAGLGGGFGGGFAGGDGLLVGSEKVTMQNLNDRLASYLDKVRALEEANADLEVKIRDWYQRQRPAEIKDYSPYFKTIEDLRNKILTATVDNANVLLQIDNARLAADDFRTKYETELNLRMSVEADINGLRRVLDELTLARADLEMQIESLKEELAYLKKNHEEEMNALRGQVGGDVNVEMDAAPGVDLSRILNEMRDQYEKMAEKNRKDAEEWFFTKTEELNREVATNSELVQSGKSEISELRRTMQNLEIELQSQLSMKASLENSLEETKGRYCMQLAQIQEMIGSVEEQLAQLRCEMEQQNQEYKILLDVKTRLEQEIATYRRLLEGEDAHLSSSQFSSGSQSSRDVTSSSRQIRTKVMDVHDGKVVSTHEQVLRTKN", "test": "Identification of haptenation site with LTQ-FT-ICR mass spectrometer", "excerpt": "The second step is that the molecules enter the basal cells. Since the extracellular environment is oxidizing, extracellular cysteines are mostly oxidized to disulfides. However, it is in the reduced, intracellular environment that the haptens find reduced thiols to react with. Once inside the cells the compounds will react with available (i.e. not sterically hindered) reduced cysteines (thiol groups). […] Furthermore, it was identified that one of the cysteines that the haptens react with is cysteine 54 (C54) of K5. […] One of the reasons for intense reaction at C54 is presumably its high effective concentration just inside the cell membrane. It is vital in the life of an organism to fail-safe its epithelial integrity, and the bundling of the KIFs ensures a high effective local concentration of the peptide stretch containing C54, ensuring strong welding of the cell to its surroundings. Amino acids nearby in the primary sequence are consequently also located within physical reach of an incoming compound in similarly high effective concentrations. Looking at blebbing brought on by amine- and arginine-reactive compounds from this angle, the residues K71 and R72 are the closest candidates in the primary sequence."}, "[5]": {"test": "Induction of oral tolerance in humans allergic to cinnamic aldehyde", "assay_type": "in vivo, human", "settings": "once a day for 5-100 days, vs placebo (tap water)", "excerpt": "Peptides (including, but not limited to): 1: [Ace]-[…]-[Amide]; 2: [Ace]-[…]-[Amide], 3: [Ace]-[…]-[Amide]. The peptides 1 and 2 represent sequences from keratin 5 and peptide 3 is derived from keratin 14; however, it is the intention that the invention also includes peptides and/or proteins from other proteins, e.g. such as those found in the blebs from keratinocytes that have been exposed to haptens.\nPreparation of amino acid containing epitope targets as described in example 3.\nOf 20 individuals with a confirmed allergy to the hapten cinnamic aldehyde, 10 are given a test solution of 0.5 mg to 10 g amino acid containing epitope target 1 once a day for 5-100 days. The other 10 individuals are given a placebo (i.e. tap water) to drink according to the same administration scheme and time table as described above. The antibody and T cell epitope mapping profiles for each individual are then evaluated according to procedures in example 4 and 5. Each individual is also patch-tested with cinnamic aldehyde."}}, "note": "Entries after “also recorded” stand apart in the source; their conditions may differ.", "data": [{"compound": "O=c1[nH]sc2ccccc12", "note": "[1,2-Benzisothiazolin-3-one]", "values": [{"measurement": "sensitizer class by EC3-value", "setting": "[1]", "value": "Moderate (key: Extreme: For extreme sensitizers (EC3<0.1%); Strong: For strong sensitizers (0.1%<EC3<1%); Moderate: For moderate sensitizers (1%<EC3<10%); Weak: For weak sensitizers (EC3>10%))"}]}, {"compound": "O=[N+]([O-])c1ccc(Cl)c([N+](=O)[O-])c1", "note": "[CDNB, 1-Chloro-2,4-dinitrobenzene]", "values": [{"measurement": "levels of anti-nuclear antibodies (ANA)", "setting": "[2]", "value": "increased levels"}, {"measurement": "sensitizer class by EC3-value", "setting": "[1]", "value": "Extreme (key: Extreme: For extreme sensitizers (EC3<0.1%); Strong: For strong sensitizers (0.1%<EC3<1%); Moderate: For moderate sensitizers (1%<EC3<10%); Weak: For weak sensitizers (EC3>10%))"}, {"measurement": "levels of SAP protein in sera", "setting": "[3]", "value": "increased levels"}, {"measurement": "blebbing response of keratinocytes", "setting": "human keratinocytes", "value": "provoke a blebbing response"}]}, {"compound": "C=O", "note": "[Formaldehyde]", "values": [{"measurement": "sensitizer class by EC3-value", "setting": "[1]", "value": "Strong (key: Extreme: For extreme sensitizers (EC3<0.1%); Strong: For strong sensitizers (0.1%<EC3<1%); Moderate: For moderate sensitizers (1%<EC3<10%); Weak: For weak sensitizers (EC3>10%))"}]}, {"compound": "O=CC=O", "note": "[Glyoxal, ethane-1,2-dione]", "values": [{"measurement": "levels of anti-nuclear antibodies (ANA)", "setting": "[2]", "value": "increased levels"}, {"measurement": "sensitizer class by EC3-value", "setting": "[1]", "value": "Strong (key: Extreme: For extreme sensitizers (EC3<0.1%); Strong: For strong sensitizers (0.1%<EC3<1%); Moderate: For moderate sensitizers (1%<EC3<10%); Weak: For weak sensitizers (EC3>10%))"}, {"measurement": "levels of SAP protein in sera", "setting": "[3]", "value": "increased levels"}, {"measurement": "blebbing response of keratinocytes", "setting": "human keratinocytes", "value": "provoke a blebbing response"}, {"measurement": "keratins (K5 and K14) in blebs", "setting": "K5 and K14", "value": "contain K5 and K14; also recorded: also contain keratins"}]}, {"compound": "CCOC=C1N=C(c2ccccc2)OC1=O", "note": "[Oxazolone, 4-Ethoxymethylene-2-phenyl-2-oxazolin-5-one]", "values": [{"measurement": "levels of anti-nuclear antibodies (ANA)", "setting": "[2]", "value": "increased levels"}, {"measurement": "protection against the hapten after tolerance induction", "setting": "[4]", "value": "some protection"}, {"measurement": "blebbing response of keratinocytes", "setting": "human keratinocytes", "value": "provoke a blebbing response"}, {"measurement": "keratins (K5 and K14) in blebs", "setting": "K5 and K14", "value": "contain K5 and K14; also recorded: also contain keratins"}]}, {"compound": "O=CCc1ccccc1", "note": "[Phenylacetaldehyde]", "values": [{"measurement": "sensitizer class by EC3-value", "setting": "[1]", "value": "Moderate (key: Extreme: For extreme sensitizers (EC3<0.1%); Strong: For strong sensitizers (0.1%<EC3<1%); Moderate: For moderate sensitizers (1%<EC3<10%); Weak: For weak sensitizers (EC3>10%))"}]}, {"compound": "CCCCCCCCCCCCOS(=O)(=O)[O-].[Na+]", "note": "[SDS, Sodium dodecyl sulphate]", "values": [{"measurement": "cellular response other than blebbing", "setting": "human keratinocytes; human keratinocytes exposed to compound", "value": "cells seem to “dissolve”"}]}, {"compound": "Cc1c(CBr)n2c(CBr)c(C)c(=O)n2c1=O", "note": "[dBBr, dibromobimane]", "values": [{"measurement": "levels of anti-nuclear antibodies (ANA)", "setting": "[2]", "value": "increased levels"}, {"measurement": "cross links between proteins", "setting": "keratins", "value": "cause cross links between for example keratins"}]}, {"compound": "Cc1c(C)n2c(CBr)c(C)c(=O)n2c1=O", "note": "[mBBr]", "values": [{"measurement": "covalent modification of C54 of K5", "setting": "cysteine 54 (C54) of K5; intact, full-thickness human skin", "value": "modifies C54 of K5"}, {"measurement": "covalent modification of C54 of K5", "setting": "cysteine 54 (C54) of K5; living human keratinocytes", "value": "modify C54 of K5; also recorded: modifies C54 of K5"}]}, {"compound": "[Ni]", "note": "[nickel]", "values": [{"measurement": "protection against the hapten after tolerance induction", "setting": "[4]", "value": "some protection"}]}, {"compound": "CCCCCCC(C=O)=Cc1ccccc1", "note": "[α-Hexyl-cinnamicaldehyde]", "values": [{"measurement": "sensitizer class by EC3-value", "setting": "[1]", "value": "Weak (key: Extreme: For extreme sensitizers (EC3<0.1%); Strong: For strong sensitizers (0.1%<EC3<1%); Moderate: For moderate sensitizers (1%<EC3<10%); Weak: For weak sensitizers (EC3>10%))"}]}, {"compound": "[Ace]-VSLGGACGAGGYG-[Amide] [amino acid containing epitope target 1]", "values": [{"measurement": "antibodies and T cells against the amino acid containing epitope target", "setting": "[5]", "value": "less antibodies and T cells"}, {"measurement": "reaction to cinnamic aldehyde in the patch test", "setting": "[5]", "value": "less reaction"}]}]}
